These results are taken from patent publication US20140303116A1, “CARNOSINE HYALURONIC ACID MIXTURES AND THEIR USE” (priority 2010, published 2014).

One assay concerns collagen III. Kind of assay: collagen III expression in fibroblasts by Western blotting. It is filed as cell-based. As to conditions: fibroblasts exposed to 1.0 and 1.5% for 48 hours, beta-actin internal control. The procedure:
The effect of solutions diluted to 1% and 1.5% and neutralized according to Example 4 on the production of collagen by fibroblasts treated with these solutions was verified.
The Western blotting technique was used to verify any production of collagen by the fibroblasts treated with L- and D-carnosine hyaluronate for 48 hours.
Fibroblast cultures were lysed with RIPA buffer at pH 7.4. Then, the samples were run onto a 10% SDS-polyacrylamide gel under reducing conditions. When the run has been completed, the proteins were transferred onto nitrocellulose membranes, incubated with anti-collagen III antibodies and then with the secondary antibody. […] The beta-actin expression was used as an internal control.
On the technique in general: A western blot detects proteins with antibodies after separation by electrophoresis.

For a further assay, the system named is skin fibroblasts. The assay can be described thus: scratch assay, migration of skin fibroblasts. It is filed as cell-based. To be noted: 48 hours of treatment after scratching; doses of between 0.2 and 0.8%; mitomycin C pre-treated cells, DMEM with 10% FCS. The procedure:
The solutions obtained from Examples 2 and 3 were used to prepare dilute […], and these solutions, whose pH initially changed from 3 to 1.5, were neutralized by the addition of NaOH.
The effect of the above solutions on the migration of skin fibroblasts was tested in vitro by means of a scratch assay. In this test, cells mimic cell migration during an in vivo tissue repair.
The method is based on scratch-wounding a confluent monolayer of cells so that the cells capable of migration are stimulated to cover the artificial gap in an attempt to re-establish new cell-to-cell contacts. […]
In this assay, the fibroblasts were scratch-wounded and then treated with the test substances at different concentrations. At 48 hours after treatment, cells were photographed and stained with crystal violet, and the migrated cells were counted under an optical microscope. […]
Cells were cultivated in DMEM with 10% FCS and treated with the dilute solutions of L-carnosine hyaluronate as described above for 48 hours after scratching. […] Cells were counted after staining with crystal violet.
Cells were cultivated in DMEM with 10% FCS and treated with the dilute solutions of D-carnosine hyaluronate as described above for 48 hours after scratching. […] Cells were counted after staining with crystal violet.

As to L-carnosine hyaluronate, the “collagen III synthesis vs control cells treated with saline” value in the assay on collagen III is listed as “synthesize more collagen III than control cells”. Also, in the assay on skin fibroblasts, the “migration of skin fibroblasts (migrated cell count)” value is “statistically significantly migrate”.
Turning to D-carnosine hyaluronate, in the assay with collagen III, the “collagen III synthesis vs control cells treated with saline” value is reported as “synthesize more collagen III than control cells”. For the same substance, the “migration of skin fibroblasts (migrated cell count)” value in the assay with skin fibroblasts is listed as “statistically significantly migrate”.
